Experimental data from patent US4342700A, “Oxidation-reduction reagents for a wet desulfurization process and a process for preparing same” (Mitsui Toatsu Chemicals, Inc., priority 1978, dated 1982).

Key:
[1] = basic aqueous solution used in the Stretford process; background statement; cited from earlier work
[2] = Solubility (g/l, 25° C.) in alkaline inorganic salt solutions and water; settings: for Solubility: 25° C.
[3] = Time required for being reduced to the leuco form by sodium vanadite; assay type: physicochemical; settings: 38° C., nitrogen, sodium vanadite 0.02 mol/l, anthraquinonesulfonate 0.04 mol/l, NaOH 0.04 mol/l
Method: (§1) Easiness in oxidation-reduction of these compounds is evaluated by their standard oxidation-reduction potential and their oxidation and reduction rates.

[4] = Time required for oxidation by air to regenerate the quinone form; assay type: physicochemical; settings: 38° C., leucoanthraquinonesulfonate 0.04 mol/l, NaOH 0.08 mol/l
Method: as §1
**Air was absorbed at 38° C. in an aqueous solution containing a
given leucoanthraquinonesulfonate (0.04 mol/l) and sodium hydroxide (0.08
mol/l) under agitation whereby the time required for finishing the
airabsorption was measured.

[5] = Standard oxidation-reduction potential Eo; assay type: physicochemical; settings: for Standard oxidation-reduction potential Eo: 25° C.; for oxidation-reduction characteristics compared with anthraquinone-2,7-disulfonate (in words): from Table 2 (reaction rates and Eo)
Method: as §1

[6] = Test for absorbing hydrogen sulfide according to the Stretford process (wet desulfurization)
Excerpt: In view of the solubility and oxidation-reduction characteristics above described, the anthraquinone compounds of the general formulas (I) and (II) are expected to exert an equivalent performance to anthraquinone-2,7-disulfonate as an oxidation-reduction reagent used for the Stretford process. […] The results of the test are given in Examples 11-17. The compounds of the general formulas (I) and (II) exerted in the Stretford process an equivalent desulfurization performance to anthraquinone-2,7-disulfonates. In other words, these anthraquinone compounds are quite equivalent to or somewhat better than anthraquinone-2,7-disulfonate in elimination rate of hydrogen sulfide (desulfurization ratio), a conversion rate of the absorbed hydrogen sulfide to elemental sulfur and a concentration of the residual hydrogen sulfide in the refined gas.
(§2) An absorption column was prepared by charging a glass tube (with a jacket) of 10 cm in inner diameter and 100 cm in length with a basket type filler of polypropylene (Tellerette S available from Nittetsu Kakoki KK, Japan) with a diameter of 1 cm up to a height of 95 cm. A hydrogen sulfide-containing gas prepared by mixing a gas composed of 6% carbon dioxide and 94% nitrogen with hydrogen sulfide in an amount of 5 g/Nm^2 was introduced at a flow rate of 230 l/hr. into the absorption column from the bottom thereof. On the other hand, an alkaline aqueous solution containing 0.03 mol/l of sodium metavanadate and 0.005 mol/l of sodium 2-carboxyanthraquinonemonosulfonate, which had been adjusted to have a pH value of 9 by addition of sodium carbonate and was kept at 40° C. was sprayed at a rate of 4.6 l/hr. into the absorption column from the top thereof whereby the hydrogen sulfide-containing gas was brought in the column into contact with the alkaline aqueous solution.
A gas/liquid ratio in this case was 0.02. From the lower part of the absorption column, the liquid was discharged and conveyed into a regeneration column made of a glass tube (with a jacket) of 10 cm in inner diameter and 100 cm in length where elementary sulfur was completely precipitated from the liquid by blowing air thereinto. A residence time of the liquid in the regeneration column was 20 minutes.
as §2, with “lenght” for “length”, “S)” for “S available from Nittetsu Kakoki KK, Japan)”, “g/Nm^3” for “g/Nm^2”, “2-phenoxyanthraquinonetrisulfonate,” for “2-carboxyanthraquinonemonosulfonate,”, “solution. A gas/liquid ratio in this case was 0.02. From the lower part of the absorption column, the liquid was discharged and conveyed into a regeneration column made of a glass tube (with a jacket) of 10 cm in inner diameter and 100 cm in length where elementary sulfur was completely precipitated from the liquid by blowing air thereinto. A residence time of the liquid in the regeneration column was 20 minutes.” for “solution.”
An absorption column was prepared by charging a glass tube (with a jacket) of 10 cm in inner diameter and 100 cm in length with a basket type filler of polypropylene (Tellerett S) with a diameter of 1 cm up to a height of 95 cm. […]

[7] = pH of solution in pure water; assay type: physicochemical
[8] = 20g Na2 CO3 + 300g Na2 S2 O3 in 1 liter of water
[9] = 20g Na2 CO3 + 300g NaSCN in 1 liter of water
[10] = Mixed aqueous solution: 20 g/l sodium carbonate, 50 g/l sodium sulfate, 100 g/l sodium thiosulfate, 150 g/l sodium thiocyanate
[11] = Examples 11-12: 0.005 mol/l reagent, 0.03 mol/l sodium metavanadate, pH 9, 40° C., H2S gas 230 l/hr, liquid 4.6 l/hr
[12] = practical use, Stretford process
[13] = Examples 13-15: 0.005 mol/l reagent, 0.03 mol/l sodium metavanadate, pH 9, 40° C., H2S gas 5 g/Nm^3, 230 l/hr
[14] = Example 17: same manner as described in Example 13 (so in the source)

Row | Compound | Solubility [2, 8] | Solubility [2, 9] | Solubility [2, 10] | Solubility ([2]; Water) | Time required for reduction to the leuco form [3] | Time required for oxidation to regenerate the quinone form [4] | Standard oxidation-reduction potential Eo [5] | desulfurization ratio [6, 11] | desulfurization ratio [6, 13] | also measured
1 | O=C1c2ccc(S(=O)(=O)O)cc2C(=O)c2ccc(S(=O)(=O)O)cc21 [anthraquinone-2,6-disulfonic acid] | – | – | – | – | – | – | – | – | – | solubility (in words) [1]: very poor solubility
2 | O=C1c2ccc(S(=O)(=O)[O-])cc2C(=O)c2ccc(S(=O)(=O)[O-])cc21.[Na+].[Na+] [reference compound] | < 1 mg/mL | < 1 mg/mL | < 1 mg/mL | 39 mg/mL | – | – | – | – | – | –
3 | O=C1c2ccc(S(=O)(=O)[O-])cc2C(=O)c2cc(S(=O)(=O)[O-])ccc21.[Na+].[Na+] [reference compound] | 10 mg/mL | 8 mg/mL | 5 mg/mL | 305 mg/mL | 5 min | 15 min | 0.29 V | 99.6% | – | –
4 | O=C1c2ccccc2C(=O)c2cc(Oc3ccc(S(=O)(=O)O)cc3S(=O)(=O)O)ccc21 [sodium 2-phenoxyanthraquinone-2',4'-disulfonate, reference compound] | – | – | – | – | – | – | – | – | – | standard oxidation-reduction potential ([5]; temperature not given): 0.21 V; suitability for use in the Stretford process (in words) ([6]; Stretford process): unsuited for use in the Stretford process; capturing rate for hydrogen sulfide (in words) [6, 12]: inferior; oxidation efficiency of hydrogen sulfide to elemental sulfur (in words) [6, 12]: inferior
5 | Sodium 2-phenoxyanthraquinonetetrasulfonate | > 300 mg/mL | > 200 mg/mL | > 200 mg/mL | > 600 mg/mL | 5 min | 15 min | 0.28 V | – | at least 99.7% | oxidation-reduction characteristics compared with anthraquinone-2,7-disulfonate (in words) [5]: very similar in oxidation-reduction characteristics to sodium anthraquinone-2,7-disulfonate
6 | ammonium 2-carboxyanthraquinonemonosulfonate | – | – | – | – | – | – | – | at least 99.7% | – | –
7 | ammonium 2-phenoxyanthraquinonetetrasulfonate | – | – | – | – | – | – | – | – | at least 99.7% | –
8 | potassium 2-carboxyanthraquinonemonosulfonate | – | – | – | – | – | – | – | at least 99.7% | – | –
9 | potassium 2-phenoxyanthraquinonetetrasulfonate | – | – | – | – | – | – | – | – | at least 99.7% | –
10 | potassium 2-phenoxyanthraquinonetrisulfonate | – | – | – | – | – | – | – | – | at least 99.7% | –
11 | sodium 2-carboxyanthraquinonemonosulfonate | 38 mg/mL | 25 mg/mL | 15 mg/mL | 12 mg/mL | 5 min | 15 min | 0.29 V | ≥ 99.7% | – | oxidation-reduction characteristics compared with anthraquinone-2,7-disulfonate (in words) [5]: very similar in oxidation-reduction characteristics to sodium anthraquinone-2,7-disulfonate; quantity of sulfur recovered, % of hydrogen sulfide contained in the feed gas ([6]; Example 11: 0.005 mol/l reagent, 0.03 mol/l sodium metavanadate, pH 9, 40° C.): 97%; pH of the solution [7]: 3-4; solubility as disodium salt ([2]; neutral or weakly alkaline solution, as disodium salt): ≥ 200 mg/mL
12 | sodium 2-carboxyanthraquinonetetrasulfonate | – | – | – | – | – | – | – | – | – | desulfurization ratio [6, 14]: at least 99.7%
13 | sodium 2-phenoxyanthraquinonetrisulfonate | > 200 mg/mL | > 100 mg/mL | > 100 mg/mL | > 400 mg/mL | 5 min | 15 min | 0.27 V | – | ≥ 99.7% | oxidation-reduction characteristics compared with anthraquinone-2,7-disulfonate (in words) [5]: very similar in oxidation-reduction characteristics to sodium anthraquinone-2,7-disulfonate; quantity of sulfur recovered, % of hydrogen sulfide contained in the feed gas ([6]; Example 13: 0.005 mol/l reagent, 0.03 mol/l sodium metavanadate, pH 9, 40° C.): 97%; desulfurization ratio [6, 14]: at least 99.7%
